Test results published in patent publication US5202315A, “Cephalosporin compounds” (Lucky, Ltd., priority 1989, dated 1993).
Converted amounts (≈) assume the structure as drawn.

Key:
Experiment in all cases: Antibacterial activity, MIC
Format in all cases: cell-based
[1] = test system: Acinetobacter calcoaceticus ATCC 15473; conditions: ATCC15473, ATCC 15473, agar two-fold dilution, 37° C., 20 hours, read-out: MIC
Description: (§1) Also, the in vitro antibacterial activity was determined by the by a two-fold dilution method as described below:
(§2) That is, the two-fold serial dilutions of the compound were made dispersed in Muller-Hinton agar medium. 2 μl of standard test strain which had the 10^7 CFU per ml was inoculated on the medium, and was incubated at 37° C. for 20 hours.

[2] = test system: Bacillus cereus ATCC 11778; conditions: ATCC11778, ATCC 11778, agar two-fold dilution, 37° C., 20 hours, read-out: MIC
Description: as §1, §2

[3] = test system: Bacillus megaterium ATCC 9885; conditions: Priestia megaterium, ATCC9885; ATCC 9885; agar two-fold dilution, 37° C., 20 hours; read-out: MIC
Description: as §1, §2

[4] = test system: Citrobacter freundii ATCC 8090; conditions: ATCC8090, ATCC 8090, agar two-fold dilution, 37° C., 20 hours, read-out: MIC
Description: as §1, §2

[5] = test system: Enterobacter aerogenes ATCC 29751; conditions: Klebsiella aerogenes, ATCC29751; ATCC 29751; agar two-fold dilution, 37° C., 20 hours; read-out: MIC
Description: as §1, §2

[6] = test system: Enterobacter cloacae ATCC 27508; conditions: ATCC27508, ATCC 27508, agar two-fold dilution, 37° C., 20 hours, read-out: MIC
Description: as §1, §2

[7] = test system: Escherichia coli ATCC 10536; conditions: ATCC10536, agar two-fold dilution, 37° C., 20 hours
Description: as §1, §2

[8] = test system: Escherichia coli ATCC 25922; conditions: ATCC25922, agar two-fold dilution, 37° C., 20 hours
Description: as §1, §2

[9] = test system: Klebsiella pneumoniae ATCC 10031; conditions: ATCC10031, ATCC 10031, agar two-fold dilution, 37° C., 20 hours, read-out: MIC
Description: as §1, §2

[10] = test system: Micrococcus luteus ATCC 9341; conditions: ATCC9341, ATCC 9341, agar two-fold dilution, 37° C., 20 hours, read-out: MIC
Description: as §1, §2

[11] = test system: Morganella morganii ATCC 8076h; conditions: ATCC8076H, agar two-fold dilution, 37° C., 20 hours
Description: as §1, §2

[12] = test system: Proteus mirabilis ATCC 25933; conditions: ATCC25933, ATCC 25933, agar two-fold dilution, 37° C., 20 hours, read-out: MIC
Description: as §1, §2

[13] = test system: Proteus vulgaris ATCC 6059; conditions: ATCC6059, ATCC 6059, agar two-fold dilution, 37° C., 20 hours, read-out: MIC
Description: as §1, §2

[14] = test system: Providencia rettgeri ATCC 9250; conditions: ATCC9250, agar two-fold dilution, 37° C., 20 hours
Description: as §1, §2

[15] = test system: Pseudomonas aeruginosa ATCC 10145; conditions: ATCC10145, ATCC 10145, agar two-fold dilution, 37° C., 20 hours, read-out: MIC
Description: as §1, §2

[16] = test system: Pseudomonas aeruginosa ATCC 25619; conditions: ATCC25619, ATCC 25619, agar two-fold dilution, 37° C., 20 hours, read-out: MIC
Description: as §1, §2

[17] = test system: Pseudomonas aeruginosa ATCC 27853; conditions: ATCC27853, ATCC 27853, agar two-fold dilution, 37° C., 20 hours, read-out: MIC
Description: as §1, §2

[18] = test system: Salmonella typhimurium ATCC 14028; conditions: Salmonella enterica; ATCC 14028; agar two-fold dilution, 37° C., 20 hours; read-out: MIC
Description: as §1, §2

[19] = test system: Serratia marcescens ATCC 27117; conditions: ATCC27117, ATCC 27117, agar two-fold dilution, 37° C., 20 hours, read-out: MIC
Description: as §1, §2

[20] = test system: Shigella flexneri ATCC 11836; conditions: ATCC11836, agar two-fold dilution, 37° C., 20 hours
Description: as §1, §2

[21] = test system: Shigella sonnei ATCC 11060; conditions: ATCC11060, ATCC 11060, agar two-fold dilution, 37° C., 20 hours, read-out: MIC
Description: as §1, §2

[22] = test system: Staphylococcus aureus ATCC 10537; conditions: ATCC10537, ATCC 10537, agar two-fold dilution, 37° C., 20 hours, read-out: MIC
Description: as §1, §2

[23] = test system: Staphylococcus aureus ATCC 6538p; conditions: ATCC6538P, ATCC 6538p, agar two-fold dilution, 37° C., 20 hours, read-out: MIC
Description: as §1, §2

[24] = test system: Staphylococcus epidermidis ATCC 12228; conditions: ATCC12228, ATCC 12228, agar two-fold dilution, 37° C., 20 hours, read-out: MIC
Description: as §1, §2

[25] = test system: Streptococcus faecalis ATCC 29212; conditions: Enterococcus faecalis, ATCC29212; ATCC 29212; agar two-fold dilution, 37° C., 20 hours; read-out: MIC
Description: as §1, §2

Row | SMILES | MIC [1] | MIC [2] | MIC [3] | MIC [4] | MIC [5] | MIC [6] | MIC [7] | MIC [10] | MIC [11] | MIC [12] | MIC [13] | MIC [14] | MIC [15] | MIC [16] | MIC [17] | MIC [18] | MIC [19] | MIC [20] | MIC [21] | MIC [22] | further results
1 | C=CC[n+]1c(N)cc(N)nc1SCC1=C(C(=O)[O-])N2C(=O)C(NC(=O)/C(=N\OC(C)(C)C(=O)O)c3csc(N)n3)C2SC1 (stereo not shown) [Compound I-3] | 4 µg/mL (≈ 6.16 µM) | 64 µg/mL (≈ 98.5 µM) | 0.5 µg/mL (≈ 0.77 µM) | 0.13 µg/mL (≈ 0.2 µM) | 2 µg/mL (≈ 3.08 µM) | 0.031 µg/mL (≈ 0.0477 µM) | 0.13 µg/mL (≈ 0.2 µM) | 0.25 µg/mL (≈ 0.385 µM) | ≤ 8 ng/mL | 0.031 µg/mL (≈ 0.0477 µM) | 0.031 µg/mL (≈ 0.0477 µM) | ≤ 8 ng/mL | 2 µg/mL (≈ 3.08 µM) | 1 µg/mL (≈ 1.54 µM) | 2 µg/mL (≈ 3.08 µM) | 0.25 µg/mL (≈ 0.385 µM) | 0.13 µg/mL (≈ 0.2 µM) | 0.031 µg/mL (≈ 0.0477 µM) | 0.063 µg/mL (≈ 0.097 µM) | 2 µg/mL (≈ 3.08 µM) | MIC [8]: 0.13 µg/mL (≈ 0.2 µM); MIC [9]: 0.063 µg/mL (≈ 0.097 µM); MIC [23]: 4 µg/mL (≈ 6.16 µM); MIC [24]: 2 µg/mL (≈ 3.08 µM); MIC [25]: > 128 µg/mL
2 | C=CC[n+]1c(N)cc(N)nc1SCC1=C(C(=O)[O-])N2C(=O)C(NC(=O)/C(=N\OC(C)C(=O)O)c3csc(N)n3)C2SC1 (stereo not shown) [Compound I-6] | 4 µg/mL (≈ 6.29 µM) | 128 µg/mL (≈ 201 µM) | 1 µg/mL (≈ 1.57 µM) | 0.063 µg/mL (≈ 0.0991 µM) | 1 µg/mL (≈ 1.57 µM) | 0.016 µg/mL (≈ 0.0252 µM) | 0.063 µg/mL (≈ 0.0991 µM) | 0.25 µg/mL (≈ 0.393 µM) | ≤ 8 ng/mL | 0.031 µg/mL (≈ 0.0488 µM) | 0.031 µg/mL (≈ 0.0488 µM) | ≤ 8 ng/mL | 4 µg/mL (≈ 6.29 µM) | 2 µg/mL (≈ 3.15 µM) | 2 µg/mL (≈ 3.15 µM) | 0.25 µg/mL (≈ 0.393 µM) | 0.13 µg/mL (≈ 0.204 µM) | 0.031 µg/mL (≈ 0.0488 µM) | 0.063 µg/mL (≈ 0.0991 µM) | 2 µg/mL (≈ 3.15 µM) | MIC [23]: 4 µg/mL (≈ 6.29 µM); MIC [24]: 2 µg/mL (≈ 3.15 µM); MIC [25]: > 128 µg/mL
3 | C=CC[n+]1c(N)cc(N)nc1SCC1=C(C(=O)[O-])N2C(=O)C(NC(=O)/C(=N\OCC(=O)O)c3csc(N)n3)C2SC1 (stereo not shown) [Compound I-9] | 8 µg/mL (≈ 12.9 µM) | 64 µg/mL (≈ 103 µM) | 0.25 µg/mL (≈ 0.402 µM) | 0.063 µg/mL (≈ 0.101 µM) | 1 µg/mL (≈ 1.61 µM) | ≤ 0.008 µg/mL | 0.031 µg/mL (≈ 0.0499 µM) | 0.25 µg/mL (≈ 0.402 µM) | ≤ 8 ng/mL | 0.031 µg/mL (≈ 0.0499 µM) | 0.031 µg/mL (≈ 0.0499 µM) | ≤ 8 ng/mL | 16 µg/mL (≈ 25.7 µM) | 2 µg/mL (≈ 3.22 µM) | 4 µg/mL (≈ 6.43 µM) | 0.13 µg/mL (≈ 0.209 µM) | 0.063 µg/mL (≈ 0.101 µM) | 0.031 µg/mL (≈ 0.0499 µM) | 0.063 µg/mL (≈ 0.101 µM) | 2 µg/mL (≈ 3.22 µM) | MIC [8]: 0.031 µg/mL (≈ 0.0499 µM); MIC [9]: 0.031 µg/mL (≈ 0.0499 µM); MIC [23]: 4 µg/mL (≈ 6.43 µM); MIC [24]: 1 µg/mL (≈ 1.61 µM); MIC [25]: > 128 µg/mL
